{
  "source": "patent US12410133B2",
  "about": "“Crystalline (r)-5-carbamoylpyridin-3-yl-2-methyl-4-(3-(trifluoromethoxy)benzyl)piperazine-1-carboxylate, compositions and methods of use thereof” (Celgene Corporation, priority 2018, dated 2025)",
  "type_in_all_cases": "physicochemical",
  "key": {"[1]": {"assay": "Interconversion study: competitive slurry of Form A and B", "details": "competitive slurry, H2O/PhMe, 1-3 weeks", "procedure": "An interconversion study of crystal forms was performed. To understand the thermodynamic stability relationship between Form A and B, competitive slurry experiments were performed at RT and 50° C. in water and toluene. Prior to the study, Form A was used to saturate the corresponding solvent before it was filtered to obtain a near-saturated solution. Equal amounts of Form A and B samples were weighed and then mixed with the prepared near-saturated solution to form a new suspension, which was stirred magnetically (˜1000 rpm) at RT and 50° C."}, "[2]": {"assay": "Visual solubility assessment of Form B at room temperature", "details": "organic solvent or mixture, thermodynamic from solid", "procedure": "Approximately 55 to 90 mg of Form B was added into a 4 mL glass vial. Solvent list in Table 18 was added into each of the vial. These samples were stirred for 3 minutes prior to visual solubility assessment."}, "[3]": {"assay": "Solubility of Form B in FaSSIF-v2 and FeSSIF-v2 at 37° C.", "details": "for Final Form: residual solid by XRPD, 2 hr", "procedure": "Solubility of Form B was evaluated at 2 hr for Form B in FaSSIF-v2 and FeSSIF-v2 at 37° C. Approximately 10 to 20 mg of Form B sample was added in 0.8 mL of corresponding bio-relevant medium to form a suspension, followed by shaking at 500 rpm at 37° C. After 2 hr, the supernatants were isolated by centrifugation (7200 rpm for 5 min) followed by filtration through […] PTFE membrane and were tested by HPLC concentration and pH. The residual solids were characterized by XRPD. As summarized in Table 17, Form B converted to a new form (Form C) after solubility evaluation, while the solubility in FaSSIF-v2 and FeSSIF-v2 was measured to be 0.12 and 0.080 mg/mL, respectively."}},
  "data": [
    {"compound": "C[C@@H]1CN(Cc2cccc(OC(F)(F)F)c2)CCN1C(=O)Oc1cncc(C(N)=O)c1", "note": "[Form A + B, (R)-5-carbamoylpyridin-3-yl-2-methyl-4-(3-(trifluoromethoxy)benzyl)piperazine-1-carboxylate]", "values": [
      {"measurement": "Final Form", "setting": "[1]; 50° C.", "result": "Form A"},
      {"measurement": "Final Form", "setting": "[1]; RT", "result": "Form A"}
    ]},
    {"compound": "C[C@@H]1CN(Cc2cccc(OC(F)(F)F)c2)CCN1C(=O)Oc1cncc(C(N)=O)c1", "note": "[Form B, (R)-5-carbamoylpyridin-3-yl-2-methyl-4-(3-(trifluoromethoxy)benzyl)piperazine-1-carboxylate]", "values": [
      {"measurement": "solubility at 3 min", "setting": "[2]; 2-Me THF, room temperature", "result": "> 810", "unit": "mg/mL"},
      {"measurement": "solubility at 3 min", "setting": "[2]; 2-Propanol, room temperature", "result": "> 365", "unit": "mg/mL"},
      {"measurement": "solubility at 3 min", "setting": "[2]; Acetone, room temperature", "result": "> 430", "unit": "mg/mL"},
      {"measurement": "solubility at 3 min", "setting": "[2]; Acetonitrile, room temperature", "result": "> 720", "unit": "mg/mL"},
      {"measurement": "solubility at 3 min", "setting": "[2]; Dichloromethane, room temperature", "result": "> 830", "unit": "mg/mL"},
      {"measurement": "solubility at 3 min", "setting": "[2]; EtOH, room temperature", "result": "> 800", "unit": "mg/mL"},
      {"measurement": "solubility at 3 min", "setting": "[2]; Ethyl Acetate, room temperature", "result": "> 800", "unit": "mg/mL"},
      {"measurement": "solubility at 3 min", "setting": "[2]; H2O/MeCN 1/3 (v/v) Aw~0.9, room temperature", "result": "> 730", "unit": "mg/mL"},
      {"measurement": "solubility at 3 min", "setting": "[2]; H2O/MeOH 1/3 (v/v) Aw~0.5, room temperature", "result": "> 780", "unit": "mg/mL"},
      {"measurement": "solubility at 3 min", "setting": "[2]; Isopropyl Acetate, room temperature", "result": "< 810", "unit": "mg/mL"},
      {"measurement": "solubility at 3 min", "setting": "[2]; Nitromethane, room temperature", "result": "> 560", "unit": "mg/mL"},
      {"measurement": "solubility at 2 h", "setting": "[3]; FaSSIF-v2, thermodynamic from solid, FaSSIF (pH 6.5), final pH 6.6", "result": 0.12, "unit": "mg/mL"},
      {"measurement": "solubility at 2 h", "setting": "[3]; FeSSIF-v2, thermodynamic from solid, FeSSIF (pH 5.8), final pH 5.9", "result": 0.08, "unit": "mg/mL"},
      {"measurement": "Final Form", "setting": "[3]; FaSSIF (pH 6.5)", "result": "Form C"},
      {"measurement": "Final Form", "setting": "[3]; FeSSIF (pH 5.8)", "result": "Form C"}
    ]}
  ]
}
